# What was measured:
# S. pneumoniae ATCC 49619 = test: MIC, NCCLS broth microdilution assay; assay type: cell-based, Streptococcus pneumoniae; settings: S. pneumoniae ATCC 49619
# E. faecalis ATCC 29212 = test: MIC, NCCLS broth microdilution assay; assay type: cell-based, Enterococcus faecalis; settings: E. faecalis ATCC 29212
# S. aureus ATCC 13709 = test: MIC, NCCLS broth microdilution assay; assay type: cell-based, Staphylococcus aureus; settings: S. aureus ATCC 13709, methicillin sensitive strain (MSSA)
# Description: (§1) In vitro biological activity data were collected for a variety of microorganisms, including Bacillus cereus (ATCC 11778), Staphylococcus aureus (ATCC 33591; ATCC 27660, a methicillin resistant strain (MRSA); ATCC 13709, a methicillin sensitive strain (MSSA)), Escherichia coli (ATCC 25922), Enterococcus faecalis (ATCC 29212), Streptococcus pneumoniae (ATCC 49619; ATCC 51422, a penicillin resistant strain (PRSP)), Enterococcus faecium (ATCC 51559, a vancomycin resistant strain (VRE)), and Staphylococcus epidermidis (ATCC 12228).
# (§2) The minimal inhibition concentration (MIC) of these compounds was determined using the National Committee for Clinical Laboratory Standards (NCCLS) broth microdilution assay in microtiter plates, as set forth in: (1) the guidelines of the National Committee for Clinical Laboratory Standards (NCCLS) Document M7-A4 (NCCLS, 1997); (2) the guidelines of the National Committee for Clinical Laboratory Standards (NCCLS) Document M11-A4 (NCCLS, 1997); and (3) the guidelines and reference method of the National Committee for Clinical Laboratory Standards (NCCLS) Document M27 -T (NCCLS, 1995).
# E. coli ATCC 25922 = test: MIC, NCCLS broth microdilution assay; assay type: cell-based, Escherichia coli; settings: E. coli ATCC 25922
# C. albicans ATCC 38247 = test: MIC, antifungal assay; assay type: cell-based, Candida albicans; settings: C. albicans ATCC 38247
# Description: In vitro biological activity data were collected for a variety of microorganisms, including Bacillus cereus (ATCC 11778), Staphylococcus aureus (ATCC 33591; ATCC 27660, a methicillin resistant strain (MRSA); ATCC 13709, a methicillin sensitive strain (MSSA)), Escherichia coli (ATCC 25922), Enterococcus faecalis (ATCC 29212), Streptococcus pneumoniae (ATCC 49619; ATCC 51422, a penicillin resistant strain (PRSP)), Enterococcus faecium (ATCC 51559, a vancomycin resistant strain (VRE)), and Staphylococcus epidermidis (ATCC 12228). Additionally, antifungal activity data were collected for Candida albicans (ATCC 38247).
# The minimal inhibition concentration (MIC) of these compounds was determined using the National Committee for Clinical Laboratory Standards (NCCLS) broth microdilution assay in microtiter plates, as set forth in: (1) the guidelines of the National Committee for Clinical Laboratory Standards (NCCLS) Document M7-A4 (NCCLS, 1997); (2) the guidelines of the National Committee for Clinical Laboratory Standards (NCCLS) Document M11-A4 (NCCLS, 1997); and (3) the guidelines and reference method of the National Committee for Clinical Laboratory Standards (NCCLS) Document M27 -T (NCCLS, 1995). For antifungal assays, the method recommended in Murray, PR., 1995 Manual of Clinical Microbiology (ASM Press, Washington, D.C.), was employed.
# B. cereus ATCC 11778 = test: MIC, NCCLS broth microdilution assay; assay type: cell-based, Bacillus cereus; settings: B. cereus ATCC 11778
# S. aureus ATCC 27660 = test: MIC, NCCLS broth microdilution assay; assay type: cell-based, Staphylococcus aureus; settings: S. aureus ATCC 27660, methicillin resistant strain (MRSA)
# Description: as §1, §2
# S. aureus ATCC 33591 = test: MIC, NCCLS broth microdilution assay; assay type: cell-based, Staphylococcus aureus; settings: S. aureus ATCC 33591
# Description: as §1, §2
Structure (SMILES),Minimum Inhibitory Concentration (MIC) (S. pneumoniae ATCC 49619),Minimum Inhibitory Concentration (MIC) (E. faecalis ATCC 29212),Minimum Inhibitory Concentration (MIC) (S. aureus ATCC 13709),Minimum Inhibitory Concentration (MIC) (E. coli ATCC 25922),Minimum Inhibitory Concentration (MIC) (C. albicans ATCC 38247),Minimum Inhibitory Concentration (MIC) (B. cereus ATCC 11778),Minimum Inhibitory Concentration (MIC) (S. aureus ATCC 27660),Minimum Inhibitory Concentration (MIC) (S. aureus ATCC 33591)
O=C(Nc1ccc(-c2cc3ccccc3o2)cc1)c1cccnc1NCCCN1CCOCC1 [Compound A-16],+ (12 ≦ MIC ≦ 32),++ (4 < MIC < 12),+++ (MIC ≦ 4),>32 µg/mL,+ (12 ≦ MIC ≦ 32),>32 µg/mL,+++ (MIC ≦ 4),–
NCCN1CCN(c2ncccc2C(=O)Nc2ccc(-c3cc4ccccc4o3)cc2)CC1 [Compound A-17],+ (12 ≦ MIC ≦ 32),+ (12 ≦ MIC ≦ 32),++ (4 < MIC < 12),>32 µg/mL,+ (12 ≦ MIC ≦ 32),+ (12 ≦ MIC ≦ 32),+ (12 ≦ MIC ≦ 32),–
O=C(Nc1ccc(-c2cc3ccccc3o2)cc1)c1cccnc1N1CCNCC1 [Compound A-20],+ (12 ≦ MIC ≦ 32),+ (12 ≦ MIC ≦ 32),++ (4 < MIC < 12),+ (12 ≦ MIC ≦ 32),++ (4 < MIC < 12),+ (12 ≦ MIC ≦ 32),++ (4 < MIC < 12),–
NCCOCCOCCNc1ncccc1C(=O)Nc1ccc(-c2cc3ccccc3o2)cc1 [Compound A-22],+ (12 ≦ MIC ≦ 32),++ (4 < MIC < 12),++ (4 < MIC < 12),>32 µg/mL,+++ (MIC ≦ 4),++ (4 < MIC < 12),++ (4 < MIC < 12),–
CCN(CC)CCCNc1cc(Cl)ccc1C(=O)Nc1ccc(-c2cc3ccccc3o2)cc1 [Compound A-23],+ (12 ≦ MIC ≦ 32),+++ (MIC ≦ 4),+++ (MIC ≦ 4),>32 µg/mL,+ (12 ≦ MIC ≦ 32),+++ (MIC ≦ 4),+++ (MIC ≦ 4),+++ (MIC ≦ 4)
NCCOCCOCCNc1cc(Cl)ccc1C(=O)Nc1ccc(-c2cc3ccccc3o2)cc1 [Compound A-24],>32 µg/mL,+ (12 ≦ MIC ≦ 32),+ (12 ≦ MIC ≦ 32),>32 µg/mL,>32 µg/mL,>32 µg/mL,+ (12 ≦ MIC ≦ 32),+ (12 ≦ MIC ≦ 32)
O=C(Nc1ccc(-c2cc3ccccc3o2)cc1)c1ccc(Cl)cc1NCCN1CCCC1 [Compound A-25],>32 µg/mL,+ (12 ≦ MIC ≦ 32),+ (12 ≦ MIC ≦ 32),>32 µg/mL,>32 µg/mL,>32 µg/mL,+ (12 ≦ MIC ≦ 32),+ (12 ≦ MIC ≦ 32)
O=C(Nc1ccc(-c2cc3ccccc3o2)cc1)c1ccc(Cl)cc1NCCN1CCNCC1 [Compound A-26],+ (12 ≦ MIC ≦ 32),++ (4 < MIC < 12),+++ (MIC ≦ 4),>32 µg/mL,>32 µg/mL,+ (12 ≦ MIC ≦ 32),++ (4 < MIC < 12),++ (4 < MIC < 12)
Cc1cc(NC(=O)c2cccnc2NCCN2CCCCC2)ccc1-c1cc2ccccc2o1 [Compound A-27],+ (12 ≦ MIC ≦ 32),+++ (MIC ≦ 4),+++ (MIC ≦ 4),>32 µg/mL,++ (4 < MIC < 12),++ (4 < MIC < 12),+++ (MIC ≦ 4),+++ (MIC ≦ 4)
Cc1cc(NC(=O)c2cccnc2NCCN2CCNCC2)ccc1-c1cc2ccccc2o1 [Compound A-28],+ (12 ≦ MIC ≦ 32),++ (4 < MIC < 12),++ (4 < MIC < 12),>32 µg/mL,+ (12 ≦ MIC ≦ 32),+ (12 ≦ MIC ≦ 32),++ (4 < MIC < 12),++ (4 < MIC < 12)
Cc1cc(NC(=O)c2cccnc2NCCCCN)ccc1-c1cc2ccccc2o1 [Compound A-29],+ (12 ≦ MIC ≦ 32),+++ (MIC ≦ 4),+++ (MIC ≦ 4),>32 µg/mL,+ (12 ≦ MIC ≦ 32),+++ (MIC ≦ 4),+++ (MIC ≦ 4),+++ (MIC ≦ 4)
Cc1cc(NC(=O)c2cccnc2NCCCN(C)C)ccc1-c1cc2ccccc2o1 [Compound A-30],+ (12 ≦ MIC ≦ 32),+++ (MIC ≦ 4),+++ (MIC ≦ 4),>32 µg/mL,+ (12 ≦ MIC ≦ 32),++ (4 < MIC < 12),+++ (MIC ≦ 4),+++ (MIC ≦ 4)
O=C(Nc1ccc(-c2cc3ccccc3o2)nc1)c1nsc(NCCN2CCNCC2)c1Cl [Compound A-35],>32 µg/mL,+ (12 ≦ MIC ≦ 32),+ (12 ≦ MIC ≦ 32),>32 µg/mL,+++ (MIC ≦ 4),>32 µg/mL,+ (12 ≦ MIC ≦ 32),>32 µg/mL
CN(C)CCCNc1snc(C(=O)Nc2ccc(-c3cc4ccccc4o3)nc2)c1Cl [Compound A-36],+ (12 ≦ MIC ≦ 32),++ (4 < MIC < 12),+++ (MIC ≦ 4),>32 µg/mL,++ (4 < MIC < 12),++ (4 < MIC < 12),+ (12 ≦ MIC ≦ 32),++ (4 < MIC < 12)
NCCCCNc1snc(C(=O)Nc2ccc(-c3cc4ccccc4o3)nc2)c1Cl [Compound A-37],>32 µg/mL,++ (4 < MIC < 12),+++ (MIC ≦ 4),>32 µg/mL,+ (12 ≦ MIC ≦ 32),>32 µg/mL,+++ (MIC ≦ 4),++ (4 < MIC < 12)
NCCNc1snc(C(=O)Nc2ccc(-c3cc4ccccc4o3)nc2)c1Cl [Compound A-38],>32 µg/mL,+++ (MIC ≦ 4),+++ (MIC ≦ 4),>32 µg/mL,+ (12 ≦ MIC ≦ 32),+++ (MIC ≦ 4),+++ (MIC ≦ 4),+++ (MIC ≦ 4)
Cc1ccc2nc(-c3ccc(NC(=O)c4nsc(NCCCN(C)CCCN)c4Cl)cc3)sc2c1 [Compound A-51],+++ (MIC ≦ 4),+++ (MIC ≦ 4),+++ (MIC ≦ 4),>32 µg/mL,+++ (MIC ≦ 4),+++ (MIC ≦ 4),+++ (MIC ≦ 4),–
Cc1ccc2nc(-c3ccc(NC(=O)c4nsc(NCCN)c4Cl)cc3)sc2c1 [Compound A-52],>32 µg/mL,+++ (MIC ≦ 4),+++ (MIC ≦ 4),>32 µg/mL,>32 µg/mL,+ (12 ≦ MIC ≦ 32),–,+++ (MIC ≦ 4)
